Where two headings read alike, the source gives them in different places.
Tested on: HeLa cells
Assay: Lipofection of HeLa cells with pCMV-luc / Rotifect Plus; transfection efficiency by luciferase reporter assay
Assay type: cell-based
Conditions: for Results in RLU/μg protein (averages): carried out analogously with Example 1; for Results in RLU (averages of three tests): inhibitors added 2 hours before and during transfection, luciferase assay after 24 hours
Experimental: The transfection efficiency was measured indirectly using a luciferase enzyme, which was coded by the inserted nucleic acid. This is a reporter gene system. These are established systems for detecting the transfection efficiency. Thus, the greater the amount of luciferase which can be detected in a culture vessel after lysis of the transfected cells, the greater the transfection efficiency. The amount of luciferase is detected by way of an enzyme substrate reaction in which a light quantum is released. These light quanta can be measured by suitable measurement devices known as luminometers. Since the number of light quanta measured is dependent in particular on the time interval in which the measurement took place, this light quantum amount is also denoted as “relative light units”. For comparative studies, the measurement conditions must therefore be identical. […] In both examples, for the treatment using the IKKe/TBK1 inhibitor and an inhibitor for a nucleic-acid-detecting toll-like receptor a significant improvement can be observed, and also cannot be explained merely by simple addition of the individual rates of increase for TKKe/TBK1 inhibitor and an inhibitor for a nucleic-acid-detecting toll-like receptor. This is thus clearly a synergistic effect. The following was used as general material: • 1. HeLa cells; ATTC CCL-2 • 2. Rotifect Plus, Carl Roth; Cat. No.: CL21.2 • 3. 48-well plates; Cellstar; Greiner BioOne; Cat. No.: 677180 • 4. DMEM; high-glucose; Biowest, w/stable glutamine/sodium pyruvate, Cat. No.: L103-500 • 5. Serum FBS Gold; PAN Biotech; Batch No. P130914: Cat. No.: P40-37500 • 6. pCMV-luc, Plasmid Factory, Cat. No.: PF461 • 7. Luciferase Assay Kit, Promega • 8. Dimethyl sulphoxide (DMSO for molecular biology), Fluka; Cat. No.: 41639 • 9. […] No.: 204001 • 10. […] Fluka; Cat. No.: C6628 • 11. […] TCI: Cat. No.: Q0056 The first embodiment, shown in FIG. 1, relates to lipofection of HeLa cells with a conventional commercial transfection reagent (Rotifect Plus), which were treated with the inhibitor BX795 for IKKe and TBK1 and with chloroquine as an inhibitor for TLR9 before and during the transfection. The lipofection of the HeLa cells was carried out over a 3-day period: […] HeLa cells were seeded into a 48-well plate. A cell count of 1*10^5 cells per well was plated in 250 μl complete DMEM medium (10% FCS). This was followed by incubation in a CO2 incubator (10%) for 24 hours. […] This was followed by incubation in a CO2 incubator (10%) for 24 hours. The efficiency of the transfection was determined using a luciferase assay kit. The assay was carried out in accordance with the manufacturer's instructions. The second embodiment, shown in FIG. 2, relates to lipofection of HeLa cells, which were treated with the inhibitor BX795 for IKKe and TBK1 and with quinacrine as an inhibitor for TLR9 before and during the transfection. The lipofection of the HeLa was carried out analogously with Example 1.

[1] = Example 2, FIG. 2, HeLa cells, BX795 0.5 μM, quinacrine 2.5 μM
[2] = Example 2, HeLa cells, BX795 0.5 μM, quinacrine 2.5 μM
[3] = Homo sapiens, HeLa, Example 2, FIG. 2, HeLa cells, BX795 0.5 μM, quinacrine 2.5 μM, read-out: transfection efficiency normalised to transfection without inhibitors (ST = 100%)
[4] = Example 1, FIG. 1, HeLa cells, BX795 0.5 μM, chloroquine 10 μM
[5] = Example 1, HeLa cells, BX795 0.5 μM, chloroquine 10 μM

CCN(CC)CCCC(C)Nc1c2ccc(Cl)cc2nc2ccc(OC)cc12 (stereo not drawn) [Quinacrine, quinacrine]
Results in RLU/μg protein (averages) [1]: 73924 RLU/μg protein
increase over standard transfection [2]: 41%
activity at 2.5 µM [3]: 385%

O=C(NCCCNc1nc(Nc2cccc(NC(=O)N3CCCC3)c2)ncc1I)c1cccs1 [BX795]
Results in RLU (averages of three tests) [4]: 50282 RLU
increase over standard transfection [5]: 256%
Results in RLU/μg protein (averages) [1]: 27260 RLU/μg protein
increase over standard transfection [2]: 285%
activity at 0.5 µM (Homo sapiens, HeLa, Example 1, FIG. 1, HeLa cells, BX795 0.5 μM, chloroquine 10 μM, read-out: transfection efficiency normalised to transfection without inhibitors (ST = 100%)): 356%
activity at 0.5 µM [3]: 141%

CCN(CC)CCCC(C)Nc1ccnc2cc(Cl)ccc12 (stereo not drawn) [Chloroquine]
Results in RLU (averages of three tests) [4]: 46817 RLU
increase over standard transfection [5]: 19%
activity at 10 µM (Homo sapiens, HeLa, read-out: transfection efficiency normalised to transfection without inhibitors (ST = 100%)): 119%

From patent US20190264228A1, “TRANSFECTION METHOD COMPRISING NONVIRAL GENE DELIVERY SYSTEMS” (priority 2016, published 2019)
